Test results from ChEMBL document CHEMBL1782049, “The synthesis and evaluation of a novel class of (E)-3-(1-cyclohexyl-1H-pyrazol-3-yl)-2-methylacrylic acid hepatitis C virus polymerase NS5B inhibitors” (Bioorg Med Chem Lett, 2011).

Legend:
Hepatitis C virus [1] = assay: Inhibition of Hepatitis C virus subtype 1b NS5B activity assessed as inhibition of poly(A)n.oligo(dT)12-18-directed incorporation of [3H]-UTP into […] after 45 mins
Hepatitis C virus [2] = assay: Antiviral activity against Hepatitis C virus subtype 1b infected in human Huh7 cells by replicon assay; type: functional, organism-based, Hepacivirus hominis; conditions: genotype 1b, Huh-7
[3] = Therapeutic index, ratio of CC50 for human HuH cells to EC50 for Hepatitis C virus subtype 1b; type: cell-based; conditions: read-out: Ratio CC50/EC50
Hepatitis C virus [4] = assay: Antiviral activity against Hepatitis C virus subtype 1b harboring NS5B P495A mutant infected in human Huh7 cells by replicon assay; type: functional, organism-based, Hepacivirus hominis; conditions: genotype 1b, Huh-7

SMILES | IC50 (Hepatitis C virus [1]) | EC50 (Hepatitis C virus [2]) | selectivity ratio [3] | EC50 (Hepatitis C virus [4])
CNC(=O)c1ccc(-c2ccc(Cl)cc2)c(COc2ccc(-c3nc(/C=C(\C)C(=O)O)cn3C3CCCCC3)cc2)c1 | 1620 nM | – | – | –
CNC(=O)c1ccc(-c2ccc(Cl)cc2)c(COc2ccc(-n3nc(/C=C(\C)C(=O)O)cc3C3CCCCC3)cc2)c1 | 4030 nM | – | – | –
C/C(=C\c1nn(C2CCCCC2)c(-c2ccc(OCc3cc(C(=O)N4CCC(O)CC4)ccc3-c3ccc(Cl)cc3)cc2)c1Br)C(=O)O | 650 nM | 700 nM | – | –
C/C(=C\c1cc(-c2ccc(OCc3cc(C(=O)N4CCC(O)CC4)ccc3-c3ccc(C#N)cc3)cc2)n(C2CCCCC2)n1)C(=O)O | 340 nM | 400 nM | > 60 | 4000 nM
CNC(=O)c1ccc(-c2ccc(C(C)=O)s2)c(COc2ccc(-c3cc(/C=C(\C)C(=O)O)nn3C3CCCCC3)cc2)c1 | 2290 nM | – | – | –
CC(=O)c1ccc(-c2ccc(C(=O)N(C)C)cc2COc2ccc(-c3cc(/C=C(\C)C(=O)O)nn3C3CCCCC3)cc2)s1 | 2700 nM | – | – | –
CC(=O)c1ccc(-c2ccc(C(=O)N3CCOCC3)cc2COc2ccc(-c3cc(/C=C(\C)C(=O)O)nn3C3CCCCC3)cc2)s1 | 5200 nM | – | – | –
CNC(=O)c1ccc(-c2ccc(Cl)cc2)c(COc2ccc(-c3nc4cc(C(=O)O)ccc4n3C3CCCCC3)cc2)c1 | 640 nM | 300 nM | – | –

The next lines start with results.

IC50 (Hepatitis C virus [1]) | EC50 (Hepatitis C virus [2]) | SMILES | selectivity ratio [3] | EC50 (Hepatitis C virus [4])
790 nM | – | CNC(=O)c1ccc(-c2ccc(C#N)cc2)c(COc2ccc(-c3cc(/C=C(\C)C(=O)O)nn3C3CCCCC3)cc2)c1 | – | –
380 nM | – | CNC(=O)c1ccc(-c2ccc(Cl)cc2)c(COc2ccc(-c3cc(/C=C(\C)C(=O)O)nn3C3CCCCC3)cc2)c1 | – | –
460 nM | 1900 nM | C/C(=C\c1cc(-c2ccc(OCc3cc(C(=O)N(C)C)ccc3-c3ccc(Cl)cc3)cc2)n(C2CCCCC2)n1)C(=O)O | – | –
440 nM | – | C/C(=C\c1cc(-c2ccc(OCc3cc(C(=O)N4CCC(O)CC4)ccc3-c3ccc(Cl)cc3)cc2)n(C2CCCCC2)n1)C(=O)O | – | –
1030 nM | – | C/C(=C\c1cc(-c2ccc(OCc3cc(C(=O)NCCO)ccc3-c3ccc(Cl)cc3)cc2)n(C2CCCCC2)n1)C(=O)O | – | –
820 nM | – | C/C(=C\c1cc(-c2ccc(OCc3cc(C(=O)N(C)C)ccc3-c3ccc(C#N)cc3)cc2)n(C2CCCCC2)n1)C(=O)O | – | –
